The text below walks through data of EP0103381B1, “Substituted anthra(1,9-cd)pyrazol-6(2H)-ones” (WARNER-LAMBERT COMPANY, priority 1982, dated 1984).

One assay has as its system Penicillium avellaneum. The assay can be described thus: agar plate paper-disc inhibition zone screening. It counts as cell-based. The following applies: Hamigera avellanea; Dose 3.0 mg/ml; read-out: Inhibition Zone Diameter mm (Dose mg/ml) P. Avellaneum. In short, it runs like this: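 Mycelia and spores from a six-day 28°C agar culture, suspended in saline with 0.05% Tween 80 at 20% transmittancy, were seeded into molten agar trays. Compounds at 3,000, 1,000, 500, 100 and 10 mcg/ml (solvent <10%) were applied on 12.7 mm paper discs. After at least 20-24 h incubation, inhibition zone diameter was measured in mm.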

The test system of a further assay is Aerobacter aerogenes. Description: agar plate paper-disc inhibition zone screening. It counts as cell-based. The following applies: Klebsiella aerogenes, read-out: Inhibition Zone Diameter mm (Dose mg/ml) A. Aerogenes; for zone of inhibition at 500 µg/mL: Dose 0.5 mg/ml; for zone of inhibition at 1000 µg/mL: Dose 1.0 mg/ml. In outline:
(§1)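 Read-out: diameter (mm) of the inhibition zone around 12.7 mm paper discs after overnight (18-20 h) incubation at 37°C. Discs carried compound at 3,000-10 mcg/ml in alcohol, DMSO or DMF, final solvent <10%. Seeded agar trays used saline-suspended cells adjusted to 20-35% transmittancy.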

The next assay relates to Escherichia coli. Description: agar plate paper-disc inhibition zone screening. It counts as cell-based. The following applies: read-out: Inhibition Zone Diameter mm (Dose mg/ml) E. Coli; for zone of inhibition at 100 µg/mL: Dose 0.1 mg/ml. In outline:
as §1

The test system of the next assay is Streptococcus faecalis. The assay can be described thus: agar plate paper-disc inhibition zone screening. It counts as cell-based. As to conditions: Enterococcus faecalis; Dose 3.0 mg/ml; read-out: Inhibition Zone Diameter mm (Dose mg/ml) S. Faecalis. In outline: as §1
The next assay has as its system Bacillus subtilis. Description: agar plate paper-disc inhibition zone screening. It counts as cell-based. As to conditions: read-out: Inhibition Zone Diameter mm (Dose mg/ml) B. Subtilis; for zone of inhibition at 100 µg/mL: Dose 0.1 mg/ml; for zone of inhibition at 3000 µg/mL: Dose 3.0 mg/ml. In outline:
as §1

Assay [1] deals with lymphocytic leukemia P388. Description: in vivo lymphocytic leukemia P388 test. Details: species or system mice. The following applies: Mus musculus, P388, ip, 720 h, two single doses four days apart, read-out: T/C × 100 (Percent); for response vs control in vivo at 6.25 mg/kg: P388, Dose 6.25 mg/kg intraperitoneally; for response vs control in vivo at 12.5 mg/kg: P388, Dose 12.5 mg/kg intraperitoneally; for response vs control in vivo at 25 mg/kg: P388, Dose 25 mg/kg intraperitoneally; for response vs control in vivo at 50 mg/kg: P388, Dose 50 mg/kg intraperitoneally; for response vs control in vivo at 1.56 mg/kg: P388, Dose 1.56 mg/kg intraperitoneally; for response vs control in vivo at 3.12 mg/kg: P388, Dose 3.12 mg/kg intraperitoneally. In outline: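 CD2F mice (6–7 per group) were inoculated intraperitoneally with P388 leukemia ascitic cells. Compounds were then given i.p. as two doses four days apart at various levels. Survival over 30 days was expressed as treated/control time ratio, efficacy criterion T/C×100 >125%.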

The next assay has as its system L1210 Leukemia. The assay can be described thus: L1210 leukemia in vitro. It counts as cell-based. As to conditions: Mus musculus, procedure of Europ. J. Cancer 17, 671 (1981), read-out: L1210 Leukemia In Vitro ID50 Molar.
Assay [2] deals with HCT-8 (human colon adenocarcinoma) cells. Description: in vitro activity against human colon adenocarcinoma (HCT-8), cell count. It counts as cell-based. As to conditions: Homo sapiens; HCT-8 cells, 60-65 hrs with compound; molar quantity of drug required to kill 50% of the tumor cells; read-out: ID50 Molar. In outline: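 HCT-8 cells seeded at ~30,000 cells/ml in RPMI 1640 + 10% FCS, grown 48 hrs at 37°C, then exposed to compound 60-65 hrs. Lysed cells counted by Coulter counter; activity as percent of controls, reported as ID50 (molar quantity killing 50% of cells).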

As to `O=C1c2ccccc2-c2nn(CCNCCO)c3ccc(Cl)c1c23` [H; Cl*; (CH2)2NH(CH2)2OH, 5-chloro-2-[2-[(2-hydroxyethyl)amino]ethyl]anthra[1,9-cd]pyrazol-6(2H)-one], the zone of inhibition at 3000 µg/mL with Penicillium avellaneum was 0 mm; in the assay with Streptococcus faecalis it was 15 mm. In addition, the zone of inhibition at 500 µg/mL in the assay with Aerobacter aerogenes came out at 18 mm. The zone of inhibition at 100 µg/mL in the assay with Escherichia coli and with Bacillus subtilis was 16 mm each time. Besides, in assay [1] (P388, Dose 100 mg/kg intraperitoneally), the response vs control in vivo at 100 mg/kg worked out at 124%. Also, the IC50 in the assay on L1210 Leukemia was found to be 390 nM.

On to `O=C1c2c(O)ccc(O)c2-c2nn(CCNCCO)c3ccc(Cl)c1c23` [7,10-(OH)2; Cl*; (CH2)2NH(CH2)2OH, 5-Chloro-7,10-dihydroxy-2-[2-[(2-hydroxyethyl)amino]ethyl]anthra[1,9-cd]pyrazol-6(2H)-one], for which, in the assay on Penicillium avellaneum, the zone of inhibition at 3000 µg/mL amounted to 0 mm. Further, the zone of inhibition at 1000 µg/mL in the assay on Aerobacter aerogenes worked out at 14 mm. Further, the zone of inhibition at 500 µg/mL in the assay with Escherichia coli (Dose 0.5 mg/ml) is 14 mm. Moreover, in the assay on Streptococcus faecalis, the zone of inhibition at 3000 µg/mL came to 0 mm. Further, in the assay with Bacillus subtilis, the zone of inhibition at 3000 µg/mL amounted to 0 mm. In assay [1], the response vs control in vivo at 6.25 mg/kg was found to be 131%, the response vs control in vivo at 12.5 mg/kg amounted to 138%, the response vs control in vivo at 25 mg/kg was found to be 143% and the response vs control in vivo at 50 mg/kg was determined as 161%. Besides, in the assay on L1210 Leukemia, the IC50 turned out to be 660 nM.

In the case of `NCCn1nc2c3c(c(Cl)ccc31)C(=O)c1c(O)ccc(O)c1-2` [7,10-(OH)2; Cl*; (CH2)2NH2, 2-(2-Aminoethyl)-5-chloro-7,10-dihydroxyanthra[1,9-cd]pyrazol-6(2H)-one], the zone of inhibition at 3000 µg/mL was 0 mm in the assay with Penicillium avellaneum, 15 mm with Escherichia coli (Dose 3.0 mg/ml), 0 mm with Streptococcus faecalis and 0 mm in the assay with Bacillus subtilis. Further, the zone of inhibition at 1000 µg/mL with Aerobacter aerogenes came out at 14 mm. Besides, in assay [1], the response vs control in vivo at 50 mg/kg was found to be 125%. Also, in the assay on L1210 Leukemia, the IC50 came out at 630 nM.

Turning to `NCCNc1ccc2c3c(nn2CCNCCO)-c2ccccc2C(=O)c13` [Example 22, 5-[(2-Aminoethyl)amino]-2-[2-[(2-hydroxyethyl)amino]ethyl]anthra[1,9-cd]pyrazol-6(2H)-one], the zone of inhibition at 3000 µg/mL with Penicillium avellaneum was 0 mm. Besides, the IC50 in assay [2] is 42 nM. For the same compound, the zone of inhibition at 500 µg/mL in the assay with Aerobacter aerogenes was found to be 16 mm. The zone of inhibition at 100 µg/mL with Escherichia coli came out at 14 mm. Moreover, the zone of inhibition at 3000 µg/mL in the assay on Streptococcus faecalis was determined as 0 mm. The zone of inhibition at 100 µg/mL in the assay with Bacillus subtilis stood at 15 mm. Further, in assay [1], the response vs control in vivo at 1.56 mg/kg turned out to be 150%, the response vs control in vivo at 3.12 mg/kg came to 162%, the response vs control in vivo at 12.5 mg/kg is 175% and the response vs control in vivo at 25 mg/kg was found to be 189%.

With `CCN(CC)CCn1nc2c3c(c(NCCN)ccc31)C(=O)c1c(O)ccc(O)c1-2` [Example 30, 5-[(2-Aminoethyl)amino]-2-(2-(diethylamino)ethyl]-7,10-dihydroxyanthra[1,9-cd]pyrazol-6(2H)-one], in the assay with Penicillium avellaneum, the zone of inhibition at 3000 µg/mL came to 14 mm. In assay [2], the IC50 came to 380 nM. Besides, the zone of inhibition at 500 µg/mL in the assay on Aerobacter aerogenes was 16 mm. For the same compound, the zone of inhibition at 1000 µg/mL in the assay on Escherichia coli (Dose 1.0 mg/ml) is 15 mm. Also, the zone of inhibition at 3000 µg/mL in the assay with Streptococcus faecalis was 0 mm. For the same compound, the zone of inhibition at 1000 µg/mL in the assay with Bacillus subtilis (Dose 1.0 mg/ml) is 16 mm. For the same compound, in assay [1], the response vs control in vivo at 1.56 mg/kg is 172%, the response vs control in vivo at 3.12 mg/kg worked out at 154%, the response vs control in vivo at 6.25 mg/kg was found to be 189% and the response vs control in vivo at 25 mg/kg was 179%.
